Here are results for 17 molecules from PubChem BioAssay (NCI).

Structures are written as SMILES. Several values for one entry are separate records, joined by “and”; a condition that tells them apart may be missing. Equal values may be shown once.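 Exposure lasted 48 hours, with cells grown in 96-well plates and compounds tested at five concentrations. GI50 is the concentration that inhibits growth by half. TGI: total growth inhibition.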

One experiment has as its system MDA-MB-231 breast. As to the kind of experiment: NCI anticancer screen, dose series, 48 h.
As for `NC(=O)c1cc(S(=O)(=O)Nc2nnc(-c3ccccc3)c(-c3ccccc3)n2)c(SCc2ccccc2)cc1Cl`, the GI50 was over 85.4 µM and the TGI was over 100 µM.
In the same order, the values of `Cc1cc(C)c(/C=C2\C(=O)Nc3ccc(NC(=O)CCCCCCC(=O)NO)cc32)[nH]1` are 1.37 µM and 60 µM.
Take `C1=C\COCc2cc(ccc2OCCN2CCCC2)Nc2nccc(n2)-c2cccc(c2)COC/1`: the GI50 is 1.92 µM and the TGI came to 5.61 µM.
The molecule `COc1ccc(-c2coc3c4c(ccc3c2=O)OCO4)cc1OC` yielded a TGI of over 100 µM.
Consider `CC(C)(S)C(N)C(=O)O` (configuration not stated), for which the GI50 is 2660 µM and the TGI is over 5000 µM.
Turning to `O=C1c2ccccc2-c2c1c1ccccc1c(=O)n2CCCCl`, the GI50 is 11.4 µM and the TGI was found to be 39.8 µM.
In the case of `CN1C(=O)/C(=C/c2c(Cl)n(C)c3ccccc23)c2ccccc21`, the GI50 is 1.99 µM and the TGI turned out to be 8.59 µM.
In turn, `Cc1nc(-[n+]2nc(-c3ccncc3)nn2-c2ccccc2)sc1C` displayed a TGI of over 100 µM.
Consider `COc1cc2c3c(n(CCCOC(=O)C(F)(F)F)c(=O)c2cc1OC)-c1cc2c(cc1C3=O)OCO2`, for which the GI50 was 0.127 µM and the TGI is over 49.9 µM.
Take `CCOC(=O)/C=C(/C)Sc1cc(O)c2ccccc2c1O`: the GI50 was 2.67 µM and the TGI was determined as 15.3 µM.
For the molecule `N=C(N)c1ccc2nc(-c3cc(CC(=O)N[C@@H](CC(=O)O)C(=O)O)cc(-c4cc(S(N)(=O)=O)ccc4O)c3O)[nH]c2c1`, the GI50 was over 100 µM and the TGI was over 100 µM.
Take `CN(CCO)c1ccc(N2Cc3ccccc3OC3=C2C(=O)c2c(O)ccc(O)c2C3=O)cn1`: the GI50 is 0.221 µM and the TGI was found to be 0.679 µM.
For the molecule `COC(=O)[C@@H](C)C[C@H](Cc1ccccc1)NC(=O)c1csc([C@@H](C[C@H](C(C)C)N(C)C(=O)[C@@H](NC(=O)[C@H]2CCCCN2C)C2CCCCC2)OC(C)=O)n1`, the GI50 is 0.00115 µM and 0.0025 µM.
Turning to `COc1ccc(CCNC(=O)c2ccc(NC3=C(Cl)C(=O)N(Cc4ccccc4)C3=O)cc2)cc1OC`, the GI50 was 4.52 µM and the TGI was over 100 µM.
Regarding `OCc1ccn2c1[C@@H](O)CC2`, the TGI was over 100 µM.
Turning to `CCOC(=O)c1c(NC(=O)c2cccc(C(F)(F)F)c2)sc2c(CN(C)C)c(O)ccc12`, the GI50 is 4.23 µM and the TGI is 15.2 µM.

In a further experiment the test system is RPMI-8226 leukemia. Briefly: NCI anticancer screen, dose series, 48 h.
Turning to `CCn1c(=O)c2c(=O)c3c4c(oc3oc2c2ccccc21)C(=O)c1ccccc1C4=O`, the GI50 is 2.91 µM and the TGI was over 100 µM.
As for `NC(=O)c1cc(S(=O)(=O)Nc2nnc(-c3ccccc3)c(-c3ccccc3)n2)c(SCc2ccccc2)cc1Cl`, the GI50 was over 44.1 µM and the TGI is over 65.1 µM.
`Cc1cc(C)c(/C=C2\C(=O)Nc3ccc(NC(=O)CCCCCCC(=O)NO)cc32)[nH]1`: the GI50 is over 100 µM and the TGI is over 100 µM.
On to `C1=C\COCc2cc(ccc2OCCN2CCCC2)Nc2nccc(n2)-c2cccc(c2)COC/1`, for which the GI50 was 3.12 µM and the TGI was found to be 6.35 µM.
The molecule `COc1ccc(-c2coc3c4c(ccc3c2=O)OCO4)cc1OC` came in with a TGI of over 100 µM.
Turning to `CC(C)(S)C(N)C(=O)O` (configuration not stated), the GI50 was 3830 µM and the TGI was over 5000 µM.
On to `O=C1c2ccccc2-c2c1c1ccccc1c(=O)n2CCCCl`, for which the GI50 is 61.7 µM and the TGI was over 100 µM.
Turning to `CN1C(=O)/C(=C/c2c(Cl)n(C)c3ccccc23)c2ccccc21`, the GI50 was 1.53 µM and the TGI stood at 3.94 µM.
In turn, `Cc1nc(-[n+]2nc(-c3ccncc3)nn2-c2ccccc2)sc1C` gave a TGI of over 100 µM.
Turning to `COc1cc2c3c(n(CCCOC(=O)C(F)(F)F)c(=O)c2cc1OC)-c1cc2c(cc1C3=O)OCO2`, the GI50 was under 0.01 µM and the TGI amounted to 0.0158 µM.
Turning to `CCOC(=O)/C=C(/C)Sc1cc(O)c2ccccc2c1O`, the GI50 is 2.29 µM and the TGI was determined as 9.09 µM.
In the same order, the values of `N=C(N)c1ccc2nc(-c3cc(CC(=O)N[C@@H](CC(=O)O)C(=O)O)cc(-c4cc(S(N)(=O)=O)ccc4O)c3O)[nH]c2c1` are over 100 µM and over 100 µM.
Regarding `CN(CCO)c1ccc(N2Cc3ccccc3OC3=C2C(=O)c2c(O)ccc(O)c2C3=O)cn1`, the GI50 is 0.227 µM and the TGI turned out to be 0.713 µM.
With `COC(=O)[C@@H](C)C[C@H](Cc1ccccc1)NC(=O)c1csc([C@@H](C[C@H](C(C)C)N(C)C(=O)[C@@H](NC(=O)[C@H]2CCCCN2C)C2CCCCC2)OC(C)=O)n1`, the GI50 is 0.000324 µM and 0.0025 µM; the TGI is 3.64 µM.
As for `COc1ccc(CCNC(=O)c2ccc(NC3=C(Cl)C(=O)N(Cc4ccccc4)C3=O)cc2)cc1OC`, the GI50 is 2.27 µM and the TGI stood at 6.5 µM.
`OCc1ccn2c1[C@@H](O)CC2` yielded a TGI of over 100 µM.

The subject of the next experiment is MCF7 breast. Briefly: NCI anticancer screen, dose series, 48 h.
Take `CCn1c(=O)c2c(=O)c3c4c(oc3oc2c2ccccc21)C(=O)c1ccccc1C4=O`: the GI50 was over 100 µM and the TGI is over 100 µM.
As for `NC(=O)c1cc(S(=O)(=O)Nc2nnc(-c3ccccc3)c(-c3ccccc3)n2)c(SCc2ccccc2)cc1Cl`, the GI50 was 30.2 µM and the TGI was over 66.4 µM.
In the case of `Cc1cc(C)c(/C=C2\C(=O)Nc3ccc(NC(=O)CCCCCCC(=O)NO)cc32)[nH]1`, the GI50 is 0.529 µM and the TGI is over 100 µM.
With `C1=C\COCc2cc(ccc2OCCN2CCCC2)Nc2nccc(n2)-c2cccc(c2)COC/1`, the GI50 was 0.772 µM and the TGI came to 3.37 µM.
Regarding `COc1ccc(-c2coc3c4c(ccc3c2=O)OCO4)cc1OC`, the TGI is over 100 µM.
As for `CC(C)(S)C(N)C(=O)O` (configuration not stated), the GI50 was 994 µM; the TGI was 2200 µM and > 100 µM.
As for `O=C1c2ccccc2-c2c1c1ccccc1c(=O)n2CCCCl`, the GI50 was 2.18 µM and the TGI was 62.4 µM.
In the case of `CN1C(=O)/C(=C/c2c(Cl)n(C)c3ccccc23)c2ccccc21`, the GI50 was 3.02 µM and 2.15 µM; the TGI was over 100 µM.
